In US20240131028A1, “CHEMOVACCINATION AGAINST PLASMODIUM INFECTION WITH SELECTIVE PLASMEPSIN X INHIBITORS” (Merck Sharp & Dohme LLC, priority 2021, published 2024):
Where two headings read alike, the source gives them in different places.

System: ring stage parasites (Pf)
Experiment: Parasite lactate dehydrogenase (LDH) growth assay (Parasite Assay, PfLDH Assay)
Format: cell-based, P. falciparum
Settings: 72 hours growth, LDH readout
Protocol: The parasite stock was maintained at 4% haematocrit in RPMI-Hepes media buffered with sodium bicarbonate and supplemented with 5% heat inactivated human serum and 0.5% albumax. […] On the day of assay set up, a blood smear of the parasite culture was Giemsa stained and counted. The parasitemia was adjusted to 0.7% rings and the haematocrit was diluted to 2% in RPMI-Hepes media buffered with sodium bicarbonate and supplemented with 5% heat inactivated human serum and 0.5% albumax. 30 μl of diluted parasites are then added into 10 μl of media+compound in pre-prepared Greiner TC assay plates. Parasite assay plates were placed in gassed humidified boxes in single layer and allowed to incubate at 37° C. for 72 hours. After 72 hours growth, assay plates were sealed with parafilm and frozen flat, in single file at −80° C. overnight. On the following day, assay plates were allowed to thaw at room temperature for 4 hours to which an LDH assay was performed to measure parasite growth.

[1] = Table 4, read-out: EC50 (Table 4)
[2] = Plasmodium falciparum, 72 h, Table 3, read-out: EC50

Structure (SMILES)	EC50 [2] [nM]	other results
CCC1(CC)CC(=O)N([C@H](CCOC)[C@H]2C[C@@H]2C(=O)NC2CC(C)(C)Oc3cc(Cl)ccc32)C(=N)N1 (single isomer, unassigned) [Example 147A]		EC50 [1]: 2.8 nM
CCC1(CC)CC(=O)N([C@H](CCOC)[C@H]2C[C@@H]2C(=O)NC2CC(C)(C)Oc3cc(Cl)ccc32)C(=N)N1 (single isomer, unassigned) [Example 147B]		EC50 [1]: 8.2 nM
CCC1(CC)CC(=O)N([C@H](CCOC)[C@H]2C[C@@H]2C(=O)N[C@H]2CC(C)(C)Oc3ccccc32)C(=N)N1 [Example 1A]	1	
CCC1(CC)CC(=O)N([C@H](CCOC)[C@H]2C[C@@H]2C(=O)N[C@@H]2CC(C)(C)Oc3ccccc32)C(=N)N1 [Example 1B]	250	
CCC1(CC)CC(=O)N(C[C@H]2C[C@@H]2C(=O)N[C@H](C)c2ccccc2)C(=N)N1 [Example 3B]	151	
CCC1(CC)CC(=O)N(C[C@H]2C[C@@H]2C(=O)N[C@@H]2CCOc3ccccc32)C(=N)N1 [Example 4B]	26	
CCC1(CC)CC(=O)N(C[C@H]2C[C@@H]2C(=O)N[C@H]2CC(C)(C)Oc3ccccc32)C(=N)N1 [Example 5]	49	
CCC1(CC)CC(=O)N(C[C@H]2C[C@@H]2C(=O)N[C@H]2c3ccccc3C[C@@H]2O)C(=N)N1 [Example 6A]	188	
CCC1(CC)CC(=O)N(C[C@H]2C[C@@H]2C(=O)N[C@H]2c3ccccc3C[C@@H]2O)C(=N)N1 [Example 6B]		EC50 (Table 3, read-out: EC50): 269 nM
CCC1(CC)CC(=O)N(C[C@H]2C[C@@H]2C(=O)N[C@H]2CC(C)(C)Oc3ccc(F)cc32)C(=N)N1 [Example 7A]	135	
CCC1(CC)CC(=O)N(C[C@H]2C[C@@H]2C(=O)N[C@@H]2CC(C)(C)Oc3ccc(F)cc32)C(=N)N1 [Example 7B]	29	
CCC1(CC)CC(=O)N(C[C@H]2C[C@@H]2C(=O)N[C@H]2C[C@@H](C(F)(F)F)Oc3ccccc32)C(=N)N1 [Example 8A]	37	
CCC1(CC)CC(=O)N(C[C@H]2C[C@@H]2C(=O)N[C@@H]2C[C@@H](C(F)(F)F)Oc3ccccc32)C(=N)N1 [Example 8B]	5.3	
CCC1(CC)CC(=O)N([C@H](c2cccnc2)[C@H]2C[C@@H]2C(=O)N[C@H]2CCOc3ccccc32)C(=N)N1 [Example 9]	6.9	
CCC1(CC)CC(=O)N([C@H](c2cccnc2)[C@H]2C[C@@H]2C(=O)N[C@@H]2c3ccccc3C[C@@H]2O)C(=N)N1 [Example 10]	27	
CCC1(CC)CC(=O)N([C@H](c2cccnc2)[C@H]2C[C@@H]2C(=O)N[C@@H]2c3ccccc3OC(C)(C)[C@H]2O)C(=N)N1 [Example 11A]	4.1	
CCC1(CC)CC(=O)N([C@H](c2cccnc2)[C@H]2C[C@@H]2C(=O)N[C@H]2c3ccccc3OC(C)(C)[C@H]2O)C(=N)N1 [Example 11B]	24	
CCC1(CC)CC(=O)N([C@H](c2cccnc2)[C@H]2C[C@@H]2C(=O)N[C@H]2C[C@@H](C(F)(F)F)Oc3ccccc32)C(=N)N1 [Example 12]	0.9	
CCC1(CC)CC(=O)N([C@H](CCOC)[C@H]2C[C@@H]2C(=O)N[C@@H]2c3ccccc3C[C@@H]2O)C(=N)N1 [Example 13]	24	
CCC1(CC)CC(=O)N([C@H](CCOC)[C@H]2C[C@@H]2C(=O)N[C@H]2C[C@@H](C(F)(F)F)Oc3ccccc32)C(=N)N1 [Example 14]	0.9	
CCC1(CC)CC(=O)N(C[C@@H]2[C@@H](C(=O)N[C@H]3c4ccccc4OC(C)(C)[C@H]3O)C2(F)F)C(=N)N1 [Example 18A]	39	
CCC1(CC)CC(=O)N([C@H](CCOC)[C@H]2C[C@@H]2C(=O)N[C@@H]2c3ccccc3OCC2(C)C)C(=N)N1 [Example 19A]	28	
CCC1(CC)CC(=O)N([C@H](CCOC)[C@H]2C[C@@H]2C(=O)N[C@H]2c3ccccc3OCC2(C)C)C(=N)N1 [Example 19B]	4.2	
COCC[C@H]([C@H]1C[C@@H]1C(=O)N[C@H]1CC(C)(C)Oc2ccccc21)N1C(=N)N[C@](C)(C(C)C)CC1=O [Example 20]	5.3	
COCC[C@H]([C@H]1C[C@@H]1C(=O)N[C@H]1C[C@@H](C(F)(F)F)Oc2ccccc21)N1C(=N)N[C@](C)(C(C)C)CC1=O [Example 21A]	260	
COCC[C@H]([C@H]1C[C@@H]1C(=O)N[C@@H]1C[C@@H](C(F)(F)F)Oc2ccccc21)N1C(=N)N[C@](C)(C(C)C)CC1=O [Example 21B]	1	
COCC[C@H]([C@H]1C[C@@H]1C(=O)N[C@H]1CCOc2ccccc21)N1C(=N)N[C@](C)(C(C)C)CC1=O [Example 22]	44	

Structure (SMILES)	EC50 [2] [nM]	other results
COCC[C@H]([C@H]1C[C@@H]1C(=O)NC1CC(C)(C)Oc2ccccc21)N1C(=N)NC(C)(C)CC1=O (some centres unmarked) [Example 23A]	16	
COCC[C@H]([C@H]1C[C@@H]1C(=O)NC1CC(C)(C)Oc2ccccc21)N1C(=N)NC(C)(C)CC1=O (some centres unmarked) [Example 23B]		EC50 (Table 3, read-out: EC50): 15 nM
COCC[C@H]([C@H]1C[C@@H]1C(=O)N[C@H]1C[C@@H](C(F)(F)F)Oc2ccccc21)N1C(=N)NC(C)(C)CC1=O [Example 24A]	3.4	
COCC[C@H]([C@H]1C[C@@H]1C(=O)N[C@@H]1C[C@@H](C(F)(F)F)Oc2ccccc21)N1C(=N)NC(C)(C)CC1=O [Example 24B]	2	
COCC[C@@H]([C@H]1C[C@@H]1C(=O)N[C@H]1C[C@@H](C(F)(F)F)Oc2ccccc21)N1C(=N)NC(C)(C)CC1=O [Example 24C]	120	
CC1(C)CC(=O)N([C@H](c2cccnc2)[C@H]2C[C@@H]2C(=O)N[C@H]2CC(C)(C)Oc3ccccc32)C(=N)N1 [Example 26]	4.7	
CC1(C)CC(=O)N([C@H](c2cccnc2)[C@H]2C[C@@H]2C(=O)N[C@@H]2c3ccccc3OC(C)(C)[C@H]2O)C(=N)N1 [Example 27]	78	
CCC1(CC)CC(=O)N(C[C@H]2C(C)[C@@H]2C(=O)N[C@H]2C[C@@H](C(F)(F)F)Oc3ccccc32)C(=N)N1 (some centres unmarked) [Example 28A]	12	
CCC1(CC)CC(=O)N(C[C@H]2C(C)[C@@H]2C(=O)N[C@H]2C[C@@H](C(F)(F)F)Oc3ccccc32)C(=N)N1 (some centres unmarked) [Example 28B]		EC50 (Table 3, read-out: EC50): 14 nM
CCC1(CC)CC(=O)N(CC2C(C(=O)N[C@H]3C[C@@H](C(F)(F)F)Oc4ccccc43)C2(C)C)C(=N)N1 (some centres unmarked) [Example 31A]	215	
CCC1(CC)CC(=O)N(CC2C(C(=O)N[C@H]3C[C@H](C(F)(F)F)Oc4ccccc43)C2(C)C)C(=N)N1 (some centres unmarked) [Example 31B]	213	
CC1(C)CC(=O)N([C@H](c2cccnc2)[C@H]2C[C@@H]2C(=O)N[C@H]2C[C@H](C(F)(F)F)Oc3ccccc32)C(=N)N1 [Example 32]	1.8	
CCC1(CC)CC(=O)N(C[C@H]2C(C)[C@@H]2C(=O)N[C@@H]2c3ccccc3C[C@H]2O)C(=N)N1 (some centres unmarked) [Example 33]	76	
CCC1(CC)CC(=O)N(C[C@@H]2[C@@H](C(=O)N[C@H]3CC(C)(C)Oc4ccccc43)C2(C)C)C(=N)N1 [Example 34]	286	
COc1ccc([C@H]([C@H]2C[C@@H]2C(=O)N[C@H]2C[C@H](C(F)(F)F)Oc3ccccc32)N2C(=N)NC(C)(C)CC2=O)cn1 [Example 37]	1.2	
COc1ccc([C@H]([C@H]2C[C@@H]2C(=O)N[C@@H]2c3ccccc3OC(C)(C)[C@H]2O)N2C(=N)NC(C)(C)CC2=O)cn1 [Example 39]	10.1	
COc1cncc([C@H]([C@H]2C[C@@H]2C(=O)N[C@H]2CC(C)(C)Oc3ccccc32)N2C(=N)NC(C)(C)CC2=O)c1 [Example 40]	3.1	
COc1cncc([C@H]([C@H]2C[C@@H]2C(=O)N[C@H]2C[C@H](C(F)(F)F)Oc3ccccc32)N2C(=N)NC(C)(C)CC2=O)c1 [Example 41]	1.1	
COc1cncc([C@H]([C@H]2C[C@@H]2C(=O)N[C@@H]2c3ccccc3OC(C)(C)[C@H]2O)N2C(=N)NC(C)(C)CC2=O)c1 [Example 42]	18.4	
CC1(C)CC(=O)N([C@H](c2cccnc2)[C@@H]2[C@@H](C(=O)N[C@H]3C[C@H](C(F)(F)F)Oc4ccccc43)C2(C)C)C(=N)N1 [Example 43A]	4	
CC1(C)CC(=O)N([C@@H](c2cccnc2)[C@@H]2[C@@H](C(=O)N[C@H]3C[C@H](C(F)(F)F)Oc4ccccc43)C2(C)C)C(=N)N1 [Example 43B]	37	
CCC1(CC)CC(=O)N([C@@H](c2cccnc2)[C@@H]2[C@@H](C(=O)N[C@H]3C[C@H](C(F)(F)F)Oc4ccccc43)C2(C)C)C(=N)N1 [Example 44A]	8.3	
CCC1(CC)CC(=O)N([C@H](c2cccnc2)[C@@H]2[C@@H](C(=O)N[C@H]3C[C@H](C(F)(F)F)Oc4ccccc43)C2(C)C)C(=N)N1 [Example 44B]	0.9	
CC1(C)CC(=O)N([C@H](c2ccc(C#N)cc2)[C@H]2C[C@@H]2C(=O)N[C@H]2CC(C)(C)Oc3ccccc32)C(=N)N1 [Example 45A]	2.8	
CC1(C)CC(=O)N([C@@H](c2ccc(C#N)cc2)[C@H]2C[C@@H]2C(=O)N[C@H]2CC(C)(C)Oc3ccccc32)C(=N)N1 [Example 45B]	220	
CC1(C)CC(=O)N([C@H](c2ccc(C#N)cc2)[C@H]2C[C@@H]2C(=O)N[C@@H]2c3ccccc3OC(C)(C)[C@H]2O)C(=N)N1 [Example 46]	2.5	
